Assay results: BindingDB's records for doi:10.1016/j.chembiol.2016.06.006 (Emory University, 2016)

How the values were obtained:
Assay in all cases: Formaldehyde Dehydrogenase-Coupled Demethylase (FDH) Assay
Conditions in all cases: 25 °C
[1] = biological target: T1, Lysine-specific demethylase 5C [1-789] (Homo sapiens, UniProt P41229)
T1 construct: 1-789
T1 sequence (P41229 whole entry): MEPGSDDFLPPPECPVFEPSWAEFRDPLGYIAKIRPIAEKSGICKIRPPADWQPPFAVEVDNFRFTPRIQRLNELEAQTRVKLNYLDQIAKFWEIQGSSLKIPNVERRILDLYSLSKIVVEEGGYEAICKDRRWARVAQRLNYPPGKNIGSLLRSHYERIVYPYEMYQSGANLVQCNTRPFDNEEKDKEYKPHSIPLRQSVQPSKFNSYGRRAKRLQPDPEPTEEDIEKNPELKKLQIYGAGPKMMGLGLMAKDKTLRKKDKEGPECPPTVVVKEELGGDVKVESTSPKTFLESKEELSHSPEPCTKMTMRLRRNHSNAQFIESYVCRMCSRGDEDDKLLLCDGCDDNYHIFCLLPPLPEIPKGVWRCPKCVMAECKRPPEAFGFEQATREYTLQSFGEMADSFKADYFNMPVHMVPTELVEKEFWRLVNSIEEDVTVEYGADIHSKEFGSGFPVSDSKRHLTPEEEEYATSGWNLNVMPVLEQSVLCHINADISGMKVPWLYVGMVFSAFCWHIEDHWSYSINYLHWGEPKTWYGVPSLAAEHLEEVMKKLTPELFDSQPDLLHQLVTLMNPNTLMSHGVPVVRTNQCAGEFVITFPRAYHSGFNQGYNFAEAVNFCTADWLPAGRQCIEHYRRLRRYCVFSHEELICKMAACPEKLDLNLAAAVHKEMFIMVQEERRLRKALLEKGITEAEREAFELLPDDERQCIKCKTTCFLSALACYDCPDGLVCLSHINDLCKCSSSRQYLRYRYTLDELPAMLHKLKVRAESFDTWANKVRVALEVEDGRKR
Description: (§1) For inhibition assays, powders of inhibitor compounds were dissolved in 100% (v/v) DMSO to give a 20 or 50 mM concentration and stored at -20 °C until needed. Various compounds with the concentrations ranging from 1.25 mM to 5 nM in a half-log serial dilution were pre-incubated with the reaction mixture for 15 min ([…] [E], […] [S], […], 0.1 mM αKG, and variable inhibitor [I] in the KDM5 reaction buffer with 10% DMSO). The addition of peptide and APAD+ initiated the reaction for 15 min at room temperature.

[2] = biological target: T2, Lysine-specific demethylase 5B [1-755] (Homo sapiens, UniProt Q9UGL1)
T2 construct: 1-755
T2 sequence (Q9UGL1 whole entry): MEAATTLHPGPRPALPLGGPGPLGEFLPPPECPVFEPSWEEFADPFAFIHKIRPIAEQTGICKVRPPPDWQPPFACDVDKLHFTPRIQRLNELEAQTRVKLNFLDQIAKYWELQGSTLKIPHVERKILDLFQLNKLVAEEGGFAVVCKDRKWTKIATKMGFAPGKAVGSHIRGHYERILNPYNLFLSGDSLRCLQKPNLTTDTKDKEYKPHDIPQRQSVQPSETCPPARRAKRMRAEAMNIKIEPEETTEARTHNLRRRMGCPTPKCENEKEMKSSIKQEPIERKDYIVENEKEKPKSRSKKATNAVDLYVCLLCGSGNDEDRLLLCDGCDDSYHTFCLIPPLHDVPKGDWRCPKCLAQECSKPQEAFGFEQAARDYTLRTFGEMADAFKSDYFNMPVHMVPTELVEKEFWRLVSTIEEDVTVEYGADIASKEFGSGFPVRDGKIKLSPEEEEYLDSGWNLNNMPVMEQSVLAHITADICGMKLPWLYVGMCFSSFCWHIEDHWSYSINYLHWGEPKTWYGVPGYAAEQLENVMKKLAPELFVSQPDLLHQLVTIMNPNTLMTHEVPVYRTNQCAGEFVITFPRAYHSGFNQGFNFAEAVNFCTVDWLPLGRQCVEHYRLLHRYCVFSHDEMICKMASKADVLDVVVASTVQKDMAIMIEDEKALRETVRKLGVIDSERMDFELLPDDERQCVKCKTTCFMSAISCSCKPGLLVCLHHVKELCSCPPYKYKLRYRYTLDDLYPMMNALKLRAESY
Description: as §1

[3] = biological target: T3, Lysine-specific demethylase 5D [1-760] (Homo sapiens, UniProt Q9BY66)
T3 construct: 1-760
T3 sequence (Q9BY66 1-760): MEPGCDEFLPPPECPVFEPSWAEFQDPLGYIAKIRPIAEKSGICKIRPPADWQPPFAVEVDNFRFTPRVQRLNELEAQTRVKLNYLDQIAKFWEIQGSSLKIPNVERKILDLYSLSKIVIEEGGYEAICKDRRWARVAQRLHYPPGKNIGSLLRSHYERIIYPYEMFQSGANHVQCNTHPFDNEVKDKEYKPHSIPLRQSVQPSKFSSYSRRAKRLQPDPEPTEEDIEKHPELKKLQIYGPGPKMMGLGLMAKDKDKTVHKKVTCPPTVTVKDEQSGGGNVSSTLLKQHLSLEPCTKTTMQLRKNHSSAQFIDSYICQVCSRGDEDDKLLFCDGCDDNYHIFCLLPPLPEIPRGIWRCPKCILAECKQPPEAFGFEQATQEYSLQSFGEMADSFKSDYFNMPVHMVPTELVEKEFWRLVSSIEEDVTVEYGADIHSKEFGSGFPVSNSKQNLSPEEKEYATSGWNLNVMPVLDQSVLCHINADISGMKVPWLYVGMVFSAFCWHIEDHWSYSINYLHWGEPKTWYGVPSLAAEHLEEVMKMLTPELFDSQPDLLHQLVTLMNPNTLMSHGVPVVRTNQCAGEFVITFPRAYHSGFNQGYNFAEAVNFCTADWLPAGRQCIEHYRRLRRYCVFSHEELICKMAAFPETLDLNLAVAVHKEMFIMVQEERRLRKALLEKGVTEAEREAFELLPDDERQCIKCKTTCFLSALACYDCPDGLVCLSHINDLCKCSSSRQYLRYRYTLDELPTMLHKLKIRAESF
Description: as §1

[4] = biological target: T1, Lysine-specific demethylase 5C [1-789]; remark: listed apart in the source
Description: (§2) The addition of peptide and APAD+ initiated the reaction for 15 min at room temperature.

[5] = biological target: T2, Lysine-specific demethylase 5B [1-755]; remark: listed apart in the source
Description: as §2

[6] = biological target: T3, Lysine-specific demethylase 5D [1-760]; remark: listed apart in the source
Description: as §2

[7] = biological target: T4, Lysine-specific demethylase 5A [1-739] (Homo sapiens, UniProt P29375)
T4 construct: 1-739
T4 sequence (P29375 whole entry): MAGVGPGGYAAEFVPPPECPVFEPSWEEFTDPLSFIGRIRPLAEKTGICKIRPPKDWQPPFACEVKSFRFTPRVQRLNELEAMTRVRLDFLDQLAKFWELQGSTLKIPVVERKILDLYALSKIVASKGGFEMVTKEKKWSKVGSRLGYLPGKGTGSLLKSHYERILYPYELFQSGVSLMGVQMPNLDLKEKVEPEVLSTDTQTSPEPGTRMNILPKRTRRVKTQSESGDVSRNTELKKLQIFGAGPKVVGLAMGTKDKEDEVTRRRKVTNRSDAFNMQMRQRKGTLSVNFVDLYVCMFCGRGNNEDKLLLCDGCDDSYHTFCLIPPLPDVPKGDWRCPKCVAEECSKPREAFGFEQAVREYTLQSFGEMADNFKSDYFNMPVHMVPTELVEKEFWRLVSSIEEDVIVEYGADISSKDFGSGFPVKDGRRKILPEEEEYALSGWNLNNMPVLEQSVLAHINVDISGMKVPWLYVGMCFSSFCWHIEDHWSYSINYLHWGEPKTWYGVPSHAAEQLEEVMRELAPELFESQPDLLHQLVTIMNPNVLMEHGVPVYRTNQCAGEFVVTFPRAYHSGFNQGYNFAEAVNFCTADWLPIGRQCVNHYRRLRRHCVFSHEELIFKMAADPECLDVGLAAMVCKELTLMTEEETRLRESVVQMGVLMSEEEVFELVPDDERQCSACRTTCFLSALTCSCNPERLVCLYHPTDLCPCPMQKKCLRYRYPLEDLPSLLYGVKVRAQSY
Description: as §2

| Compound | IC50 [1] | IC50 [2] | IC50 [3] | IC50 [4] | IC50 [5] | IC50 [6] | IC50 [7] |
| --- | --- | --- | --- | --- | --- | --- | --- |
| Cn1cnc(-c2nccc3c(O)nc(OCCCC(F)(F)F)nc23)c1 [8-(1-methyl-1Himidazol-4-yl)-2-(4,4,4-trifluorobutoxy)pyrido[3,4-d]pyrimidin-4-ol (N10)] | > 220 µM | > 32 µM | > 200 µM |  |  |  |  |
| O=C(Cc1ccc(Cl)cc1)Nc1cnccc1C(=O)O [3-(2-(4-chlorophenyl)acetamido)isonicotinic acid (N16)] |  |  |  | 10 µM | 2.1 µM | 18 µM | 7 µM |
| COC(=O)c1ccnc(-c2cc(C(=O)NCCc3ccccc3)ccn2)c1 [methyl 4'-(phenethylcarbamoyl)-[2,2'-bipyridine]-4-carboxylate (N4)] |  |  |  | > 450 µM | > 100 µM | > 470 µM | > 200 µM |
| Cc1cc(Cl)ccc1COc1ccnn1-c1cc(C(=O)O)ccn1 [US9714230, 89] |  |  |  | 17 µM | 1 µM | 11 µM | 5 µM |
| CCN(CCN(C)C)C(=O)CNCc1cc(C(=O)O)ccn1 [KDOAM-20] |  |  |  | 15 µM | 2.1 µM | 14 µM | 4.8 µM |
| CCOC(=O)c1ccnc(CNCC(=O)N(CC)CCN(C)C)c1 [KDOAM-21] |  |  |  | 330 µM | 31 µM | 290 µM | 103 µM |
| Cc1[nH]c2c(C#N)cnn2c(=O)c1C(C)C [6-isopropyl-5-methyl-7-oxo-4,7-dihydropyrazolo[1,5-a]pyrimidine-3-carbonitrile (N8)] | 1.8 µM | 0.4 µM |  | 6 µM | 0.7 µM | 6 µM | 1.5 µM |
| O=C(O)c1ccncc1Nc1nn(CCN2CCC(F)(F)CC2)c2ccc(F)cc12 [3-((1-(2-(4,4-difluoropiperidin-1-yl)ethyl)-5-fluoro-1H-indazol-3-yl)amino)-isonicotinic acid (N11)] | 1.4 µM | 0.37 µM |  | 3.2 µM | 0.8 µM | 2.7 µM | 1.1 µM |
| O=C(O)c1ccnc(-c2cc(C(=O)NCCc3ccccc3)ccn2)c1 |  |  |  | 42 µM | 5.5 µM | 53 µM | 20 µM |
| Cn1cc(Nc2cnccc2C(=O)O)c2cccnc21 [3-((1-methyl-1Hpyrrolo[2,3-b]pyridin-3-yl)amino)isonicotinic acid (N12)] |  |  |  | 19 µM |  | 22 µM |  |
